Here are results for one molecule from patent US7410996B2, “3-aryloxy/thio-2,3-substituted propanamines and their use in inhibiting serotonin and norepinephrine reuptake” (Eli Lilly and Company, priority 2002, dated 2008).

Counter-ions that a name gives are not always drawn.

In assay [1] the target is T1, human serotonin transporter (Homo sapiens, UniProt P31645).
T1 construct: isolate and amplify each of the three full-length cDNAs from an appropriate cDNA library; expressed in transfected cells; host or cells: HEK293 cells, stably transfected (pcDNA3.1-type vector); membrane preparation
As to the kind of experiment: [3H]-citalopram scintillation proximity binding assay (serotonin binding assay). The note with it: read-out: Ki (SERT). From the text: (§1) Generation of Stable Cell-lines Expressing the Human Dopamine, Norepinephrine and Serotonin Transporters
(§2) Standard molecular cloning techniques were used to generate stable cell-lines expressing the human dopamine, norepinephrine and serotonin transporters. The polymerase chain reaction (PCR) was used in order to isolate and amplify each of the three full-length cDNAs from an appropriate cDNA library. Primers for PCR were designed using the following published sequence data:
Human serotonin transporter: GenBank L05568. Reference: Ramamoorthy S, Bauman A L, Moore K R, Han H, Yang-Feng T, Chang A S, Ganaphthy V and Blakely R D. Antidepressant- and cocaine-sensitive human serotonin transporter: Molecular cloning, expression, and chromosomal localization. Proceedings of the National Academy of Sciences of the USA (1993) volume 90, pages 2542-2546. […]
Membrane preparation is essentially similar to that for the norepinephrine transporter containing membranes as described above. […] The protein concentration of the membrane preparation was determined using a BCA protein assay reagent kit. […]
The microtitre plates were incubated at room temperature for 10 hours prior to reading in a Trilux scintillation counter. The results were analysed using an automatic spline fitting programme Multicalc, Packard, Milton Keynes, UK) to provide Ki (nM) values for each of the test compounds. […]
(In general: In a scintillation proximity assay essentially only radioactivity close to the scintillant gives light.)

The target of assay [2] is T2, human norepinephrine transporter (Homo sapiens, UniProt P23975).
T2 construct: isolate and amplify each of the three full-length cDNAs from an appropriate cDNA library; expressed in transfected cells; host or cells: HEK-293 cells, stably transfected (pcDNA3.1-type vector); membrane preparation
As to the kind of experiment: [3H]-nisoxetine scintillation proximity binding assay (norepinephrine binding assay). The settings on record: read-out: Ki (NET).
Excerpt: as §1, §2
Human norepinephrine transporter: GenBank M65105. Reference: Pacholczyk T, Blakely, R D and Amara S G. Expression cloning of a cocaine- and antidepressant-sensitive human noradrenaline transporter. Nature (1991) volume 350, pages 350-354. […]
Cell pastes from large scale production of HEK-293 cells expressing cloned human norepinephrine transporters were homogenized in 4 volumes 50 mM Tris-HCl containing 300 mM NaCl and 5 mM KCl, pH 7.4. […] The protein concentration of the membrane preparation was determined using a bicinchoninic acid (BCA) protein assay reagent kit (available from Pierce). […]
The microtitre plates were incubated at room temperature for 10 hours prior to reading in a Trilux scintillation counter. The results were analysed using an automatic spline fitting programme (Multicalc, Packard, Milton Keynes, UK) to provide Ki values for each of the test compounds. […]

T1 sequence (P31645 whole entry): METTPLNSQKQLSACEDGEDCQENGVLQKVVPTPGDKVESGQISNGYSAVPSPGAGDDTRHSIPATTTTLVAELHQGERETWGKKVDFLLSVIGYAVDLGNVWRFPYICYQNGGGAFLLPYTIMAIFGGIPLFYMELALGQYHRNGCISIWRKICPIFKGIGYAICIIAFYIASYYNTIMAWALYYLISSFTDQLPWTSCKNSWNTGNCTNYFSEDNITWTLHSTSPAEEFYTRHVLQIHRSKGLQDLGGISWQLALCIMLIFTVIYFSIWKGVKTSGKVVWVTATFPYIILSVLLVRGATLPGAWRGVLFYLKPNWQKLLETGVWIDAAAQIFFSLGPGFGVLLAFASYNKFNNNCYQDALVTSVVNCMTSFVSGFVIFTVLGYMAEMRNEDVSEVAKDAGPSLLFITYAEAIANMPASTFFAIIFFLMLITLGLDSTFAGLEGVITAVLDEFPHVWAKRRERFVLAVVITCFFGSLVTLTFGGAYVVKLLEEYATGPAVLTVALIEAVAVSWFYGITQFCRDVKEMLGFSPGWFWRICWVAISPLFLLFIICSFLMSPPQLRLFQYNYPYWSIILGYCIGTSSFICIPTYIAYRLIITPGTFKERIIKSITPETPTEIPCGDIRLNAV
T2 sequence (P23975 whole entry): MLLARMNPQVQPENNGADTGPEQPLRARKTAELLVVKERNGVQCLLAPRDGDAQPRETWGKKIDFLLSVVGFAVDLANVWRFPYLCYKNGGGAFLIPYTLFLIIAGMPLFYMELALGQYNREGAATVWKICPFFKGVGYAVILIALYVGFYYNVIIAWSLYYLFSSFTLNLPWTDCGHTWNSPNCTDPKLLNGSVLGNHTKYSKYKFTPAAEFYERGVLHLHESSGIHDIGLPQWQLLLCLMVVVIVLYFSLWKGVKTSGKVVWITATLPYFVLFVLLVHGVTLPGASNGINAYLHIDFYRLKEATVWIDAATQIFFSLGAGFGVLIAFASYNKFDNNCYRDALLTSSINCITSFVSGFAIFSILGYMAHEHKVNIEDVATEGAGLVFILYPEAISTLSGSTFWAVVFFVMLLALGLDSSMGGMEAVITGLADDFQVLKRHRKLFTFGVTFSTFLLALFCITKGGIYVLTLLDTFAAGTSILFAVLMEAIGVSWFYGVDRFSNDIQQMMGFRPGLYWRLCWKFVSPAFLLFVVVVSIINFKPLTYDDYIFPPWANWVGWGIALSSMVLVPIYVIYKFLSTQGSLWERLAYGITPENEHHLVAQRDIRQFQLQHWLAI

One may read the Ki as a dissociation constant, usually derived from enzyme kinetics or from competition with a known ligand. With `CNC[C@@H](O)[C@@H](Oc1ccc(F)c2ccccc12)c1cccc(F)c1` [Example 32, (1S,2R)-1-(4-Fluoro-naphthalen-1-yloxy)-1-(3-fluoro-phenyl)-3-methylamino-propan-2-ol Hydrochloride], the figures for the Ki in assay [1] and in assay [2] were 1.1 nM and 15.2 nM, respectively.
